Reference: ChEMBL document CHEMBL4033663, “Design, combinatorial synthesis and biological evaluations of novel 3-amino-1'-((1-aryl-1H-1,2,3-triazol-5-yl)methyl)-2'-oxospiro[benzo[a] pyrano[2,3-c]phenazine-1,3'-indoline]-2-carbonitrile antitumor hybrid molecules” (Eur J Med Chem, 2017)

Each molecule was assayed on HUVEC (assay: Antiproliferative activity against human HUVEC cells after 48 hrs by MTT assay). Settings: not given.
Format: cell-based
With `N#CC1=C(N)Oc2c(N)cc3nc4ccccc4nc3c2C12C(=O)N(Cc1cnnn1-c1ccccc1Cl)c1ccccc12` (centres undefined) the IC50 was greater than 50 µM.
`Cc1ccc(C)c(-n2nncc2CN2C(=O)C3(C(C#N)=C(N)Oc4c3c3nc5ccccc5nc3c3ccccc43)c3ccccc32)c1` (centres undefined) gave an IC50 greater than 50 µM.
Molecule `N#CC1=C(N)Oc2c(N)cc3nc4ccccc4nc3c2C12C(=O)N(Cc1cnnn1-c1ccccc1Br)c1ccccc12` (centres undefined) has an IC50 of 34.2 µM.
`N#CC1=C(N)Oc2c(c3nc4ccccc4nc3c3ccccc23)C12C(=O)N(Cc1cnnn1-c1ccc(F)c(Cl)c1)c1ccccc12` (centres undefined) gave an IC50 greater than 50 µM.
For `Cc1ccc(C)c(-n2nncc2CN2C(=O)C3(C(C#N)=C(N)Oc4c(N)cc5nc6ccccc6nc5c43)c3ccccc32)c1` (centres undefined), the IC50 was greater than 50 µM.
`Cc1cc(C)cc(-n2nncc2CN2C(=O)C3(C(C#N)=C(N)Oc4c3c3nc5ccccc5nc3c3ccccc43)c3ccccc32)c1` (centres undefined) was tested, and the IC50 was greater than 50 µM.
For `N#CC1=C(N)Oc2c(c3nc4ccccc4nc3c3ccccc23)C12C(=O)N(Cc1cnnn1-c1ccc(S(N)(=O)=O)cc1)c1ccccc12` (centres undefined), the IC50 was greater than 50 µM.
For `CCc1cccc(C)c1-n1nncc1CN1C(=O)C2(C(C#N)=C(N)Oc3c(N)cc4nc5ccccc5nc4c32)c2ccccc21` (centres undefined), the IC50 was greater than 50 µM.
With `N#CC1=C(N)Oc2c(c3nc4ccccc4nc3c3ccccc23)C12C(=O)N(Cc1cnnn1-c1ccc(F)cc1)c1ccccc12` (centres undefined) the IC50 was greater than 50 µM.

What follows are molecules tested on L02 (assay: Antiproliferative activity against human L02 cells after 48 hrs by MTT assay). Settings: L02, 48 h.
Format: cell-based
`N#CC1=C(N)Oc2c(N)cc3nc4ccccc4nc3c2C12C(=O)N(Cc1cnnn1-c1ccccc1Cl)c1ccccc12` (centres undefined) gave an IC50 greater than 50 µM.
Molecule `Cc1ccc(C)c(-n2nncc2CN2C(=O)C3(C(C#N)=C(N)Oc4c3c3nc5ccccc5nc3c3ccccc43)c3ccccc32)c1` (centres undefined) has an IC50 greater than 50 µM.
`N#CC1=C(N)Oc2c(N)cc3nc4ccccc4nc3c2C12C(=O)N(Cc1cnnn1-c1ccccc1Br)c1ccccc12` (centres undefined) was tested, and the IC50 was 29.2 µM.
With `N#CC1=C(N)Oc2c(c3nc4ccccc4nc3c3ccccc23)C12C(=O)N(Cc1cnnn1-c1ccc(F)c(Cl)c1)c1ccccc12` (centres undefined) the IC50 was greater than 50 µM.
Work on `Cc1ccc(C)c(-n2nncc2CN2C(=O)C3(C(C#N)=C(N)Oc4c(N)cc5nc6ccccc6nc5c43)c3ccccc32)c1` (centres undefined) yielded an IC50 greater than 50 µM.
For `Cc1cc(C)cc(-n2nncc2CN2C(=O)C3(C(C#N)=C(N)Oc4c3c3nc5ccccc5nc3c3ccccc43)c3ccccc32)c1` (centres undefined), the IC50 was greater than 50 µM.
Work on `N#CC1=C(N)Oc2c(c3nc4ccccc4nc3c3ccccc23)C12C(=O)N(Cc1cnnn1-c1ccc(S(N)(=O)=O)cc1)c1ccccc12` (centres undefined) yielded an IC50 greater than 50 µM.
For `CCc1cccc(C)c1-n1nncc1CN1C(=O)C2(C(C#N)=C(N)Oc3c(N)cc4nc5ccccc5nc4c32)c2ccccc21` (centres undefined), the IC50 was greater than 50 µM.
`N#CC1=C(N)Oc2c(c3nc4ccccc4nc3c3ccccc23)C12C(=O)N(Cc1cnnn1-c1ccc(F)cc1)c1ccccc12` (centres undefined) gave an IC50 greater than 50 µM.

What follows are molecules tested on HCT-116 (assay: Antiproliferative activity against human HCT116 cells after 48 hrs by MTT assay). Settings: HCT-116, 48 h.
Format: functional, cell-based
In the case of `N#CC1=C(N)Oc2c(N)cc3nc4ccccc4nc3c2C12C(=O)N(Cc1cnnn1-c1ccccc1Cl)c1ccccc12` (centres undefined), the IC50 is reported as greater than 50 µM.
In the case of `Cc1ccc(C)c(-n2nncc2CN2C(=O)C3(C(C#N)=C(N)Oc4c3c3nc5ccccc5nc3c3ccccc43)c3ccccc32)c1` (centres undefined), the IC50 is reported as greater than 50 µM.
In the case of `N#CC1=C(N)Oc2c(N)cc3nc4ccccc4nc3c2C12C(=O)N(Cc1cnnn1-c1ccccc1Br)c1ccccc12` (centres undefined), the IC50 is reported as 12.4 µM.
Molecule `N#CC1=C(N)Oc2c(c3nc4ccccc4nc3c3ccccc23)C12C(=O)N(Cc1cnnn1-c1ccc(F)c(Cl)c1)c1ccccc12` (centres undefined) has an IC50 greater than 50 µM.
For `Cc1ccc(C)c(-n2nncc2CN2C(=O)C3(C(C#N)=C(N)Oc4c(N)cc5nc6ccccc6nc5c43)c3ccccc32)c1` (centres undefined), the IC50 was greater than 50 µM.
For `Cc1cc(C)cc(-n2nncc2CN2C(=O)C3(C(C#N)=C(N)Oc4c3c3nc5ccccc5nc3c3ccccc43)c3ccccc32)c1` (centres undefined), the IC50 was greater than 50 µM.
For `N#CC1=C(N)Oc2c(c3nc4ccccc4nc3c3ccccc23)C12C(=O)N(Cc1cnnn1-c1ccc(S(N)(=O)=O)cc1)c1ccccc12` (centres undefined), the IC50 was 31.2 µM.
Molecule `CCc1cccc(C)c1-n1nncc1CN1C(=O)C2(C(C#N)=C(N)Oc3c(N)cc4nc5ccccc5nc4c32)c2ccccc21` (centres undefined) has an IC50 greater than 50 µM.
For `N#CC1=C(N)Oc2c(c3nc4ccccc4nc3c3ccccc23)C12C(=O)N(Cc1cnnn1-c1ccc(F)cc1)c1ccccc12` (centres undefined), the IC50 was greater than 50 µM.

Each molecule was assayed on MCF7 (assay: Antiproliferative activity against human MCF7 cells after 48 hrs by MTT assay). Settings: MCF7, 48 h.
Format: functional, cell-based
Work on `N#CC1=C(N)Oc2c(N)cc3nc4ccccc4nc3c2C12C(=O)N(Cc1cnnn1-c1ccccc1Cl)c1ccccc12` (centres undefined) yielded an IC50 of 34.4 µM.
`Cc1ccc(C)c(-n2nncc2CN2C(=O)C3(C(C#N)=C(N)Oc4c3c3nc5ccccc5nc3c3ccccc43)c3ccccc32)c1` (centres undefined) showed an IC50 greater than 50 µM.
Molecule `N#CC1=C(N)Oc2c(N)cc3nc4ccccc4nc3c2C12C(=O)N(Cc1cnnn1-c1ccccc1Br)c1ccccc12` (centres undefined) has an IC50 of 30.7 µM.
`N#CC1=C(N)Oc2c(c3nc4ccccc4nc3c3ccccc23)C12C(=O)N(Cc1cnnn1-c1ccc(F)c(Cl)c1)c1ccccc12` (centres undefined) was tested, and the IC50 was greater than 50 µM.
`Cc1ccc(C)c(-n2nncc2CN2C(=O)C3(C(C#N)=C(N)Oc4c(N)cc5nc6ccccc6nc5c43)c3ccccc32)c1` (centres undefined) showed an IC50 greater than 50 µM.
In the case of `Cc1cc(C)cc(-n2nncc2CN2C(=O)C3(C(C#N)=C(N)Oc4c3c3nc5ccccc5nc3c3ccccc43)c3ccccc32)c1` (centres undefined), the IC50 is reported as greater than 50 µM.
`N#CC1=C(N)Oc2c(c3nc4ccccc4nc3c3ccccc23)C12C(=O)N(Cc1cnnn1-c1ccc(S(N)(=O)=O)cc1)c1ccccc12` (centres undefined) showed an IC50 greater than 50 µM.
Work on `CCc1cccc(C)c1-n1nncc1CN1C(=O)C2(C(C#N)=C(N)Oc3c(N)cc4nc5ccccc5nc4c32)c2ccccc21` (centres undefined) yielded an IC50 greater than 50 µM.
With `N#CC1=C(N)Oc2c(c3nc4ccccc4nc3c3ccccc23)C12C(=O)N(Cc1cnnn1-c1ccc(F)cc1)c1ccccc12` (centres undefined) the IC50 was greater than 50 µM.

These molecules were tested on HepG2 (assay: Antiproliferative activity against human HepG2 cells after 48 hrs by MTT assay). Settings: HepG2, 48 h.
Format: functional, cell-based
`N#CC1=C(N)Oc2c(N)cc3nc4ccccc4nc3c2C12C(=O)N(Cc1cnnn1-c1ccccc1Cl)c1ccccc12` (centres undefined) was tested, and the IC50 was 33.5 µM.
For `Cc1ccc(C)c(-n2nncc2CN2C(=O)C3(C(C#N)=C(N)Oc4c3c3nc5ccccc5nc3c3ccccc43)c3ccccc32)c1` (centres undefined), the IC50 was greater than 50 µM.
For `N#CC1=C(N)Oc2c(N)cc3nc4ccccc4nc3c2C12C(=O)N(Cc1cnnn1-c1ccccc1Br)c1ccccc12` (centres undefined), the IC50 was 38 µM.
`N#CC1=C(N)Oc2c(c3nc4ccccc4nc3c3ccccc23)C12C(=O)N(Cc1cnnn1-c1ccc(F)c(Cl)c1)c1ccccc12` (centres undefined) showed an IC50 greater than 50 µM.
Molecule `Cc1ccc(C)c(-n2nncc2CN2C(=O)C3(C(C#N)=C(N)Oc4c(N)cc5nc6ccccc6nc5c43)c3ccccc32)c1` (centres undefined) has an IC50 greater than 50 µM.
For `Cc1cc(C)cc(-n2nncc2CN2C(=O)C3(C(C#N)=C(N)Oc4c3c3nc5ccccc5nc3c3ccccc43)c3ccccc32)c1` (centres undefined), the IC50 was greater than 50 µM.
`N#CC1=C(N)Oc2c(c3nc4ccccc4nc3c3ccccc23)C12C(=O)N(Cc1cnnn1-c1ccc(S(N)(=O)=O)cc1)c1ccccc12` (centres undefined) was tested, and the IC50 was 42.2 µM.
`CCc1cccc(C)c1-n1nncc1CN1C(=O)C2(C(C#N)=C(N)Oc3c(N)cc4nc5ccccc5nc4c32)c2ccccc21` (centres undefined) gave an IC50 greater than 50 µM.
`N#CC1=C(N)Oc2c(c3nc4ccccc4nc3c3ccccc23)C12C(=O)N(Cc1cnnn1-c1ccc(F)cc1)c1ccccc12` (centres undefined) gave an IC50 greater than 50 µM.

Each molecule was assayed on A549 (assay: Antiproliferative activity against human A549 cells after 48 hrs by MTT assay). Settings: A549, 48 h.
Format: functional, cell-based
In the case of `N#CC1=C(N)Oc2c(N)cc3nc4ccccc4nc3c2C12C(=O)N(Cc1cnnn1-c1ccccc1Cl)c1ccccc12` (centres undefined), the IC50 is reported as 29.8 µM.
`Cc1ccc(C)c(-n2nncc2CN2C(=O)C3(C(C#N)=C(N)Oc4c3c3nc5ccccc5nc3c3ccccc43)c3ccccc32)c1` (centres undefined) was tested, and the IC50 was greater than 50 µM.
For `N#CC1=C(N)Oc2c(N)cc3nc4ccccc4nc3c2C12C(=O)N(Cc1cnnn1-c1ccccc1Br)c1ccccc12` (centres undefined), the IC50 was 27.4 µM.
Molecule `N#CC1=C(N)Oc2c(c3nc4ccccc4nc3c3ccccc23)C12C(=O)N(Cc1cnnn1-c1ccc(F)c(Cl)c1)c1ccccc12` (centres undefined) has an IC50 greater than 50 µM.
Work on `Cc1ccc(C)c(-n2nncc2CN2C(=O)C3(C(C#N)=C(N)Oc4c(N)cc5nc6ccccc6nc5c43)c3ccccc32)c1` (centres undefined) yielded an IC50 greater than 50 µM.
`Cc1cc(C)cc(-n2nncc2CN2C(=O)C3(C(C#N)=C(N)Oc4c3c3nc5ccccc5nc3c3ccccc43)c3ccccc32)c1` (centres undefined) showed an IC50 greater than 50 µM.
With `N#CC1=C(N)Oc2c(c3nc4ccccc4nc3c3ccccc23)C12C(=O)N(Cc1cnnn1-c1ccc(S(N)(=O)=O)cc1)c1ccccc12` (centres undefined) the IC50 was greater than 50 µM.
`CCc1cccc(C)c1-n1nncc1CN1C(=O)C2(C(C#N)=C(N)Oc3c(N)cc4nc5ccccc5nc4c32)c2ccccc21` (centres undefined) gave an IC50 greater than 50 µM.
In the case of `N#CC1=C(N)Oc2c(c3nc4ccccc4nc3c3ccccc23)C12C(=O)N(Cc1cnnn1-c1ccc(F)cc1)c1ccccc12` (centres undefined), the IC50 is reported as greater than 50 µM.
